We go through 13 compounds from article PMC12586667 (Scientific Reports, 2025).

Data set [1] concerns intestine-liver-on-a-chip (Caco-2 and HepG2 cells). The experiment in a line: Lucifer yellow permeability assay. Type of data set: in vitro ADME, human. The conditions noted are these: WT and genome-edited chips vs WT or genome-edited Caco-2 mono-culture. For orientation: Caco-2 monolayers are a common model of the intestinal barrier.
Data set [2] concerns WT and genome-edited intestine-liver-on-a-chip (Caco-2 and HepG2 cells). The experiment in a line: Drug permeability assay. It counts as in vitro ADME, human. The conditions noted are these: for drug concentration in the top channel / drug concentration in the bottom channel: WT and genome-edited chips.
Data set [3] in a line: Measurement of drug absorption. It counts as physicochemical. Conditions: within 2 h.
For data set [4] the following is noted: model drugs with minimal first-pass effects; cited from earlier work.
Data set [5] deals with CYP2C9 (Homo sapiens, UniProt P11712). Briefly: CYP2C9 activity on chip by quantifying 4-OH diclofenac. Type of data set: in vitro ADME.
CYP2C9, sequence (P11712 whole entry): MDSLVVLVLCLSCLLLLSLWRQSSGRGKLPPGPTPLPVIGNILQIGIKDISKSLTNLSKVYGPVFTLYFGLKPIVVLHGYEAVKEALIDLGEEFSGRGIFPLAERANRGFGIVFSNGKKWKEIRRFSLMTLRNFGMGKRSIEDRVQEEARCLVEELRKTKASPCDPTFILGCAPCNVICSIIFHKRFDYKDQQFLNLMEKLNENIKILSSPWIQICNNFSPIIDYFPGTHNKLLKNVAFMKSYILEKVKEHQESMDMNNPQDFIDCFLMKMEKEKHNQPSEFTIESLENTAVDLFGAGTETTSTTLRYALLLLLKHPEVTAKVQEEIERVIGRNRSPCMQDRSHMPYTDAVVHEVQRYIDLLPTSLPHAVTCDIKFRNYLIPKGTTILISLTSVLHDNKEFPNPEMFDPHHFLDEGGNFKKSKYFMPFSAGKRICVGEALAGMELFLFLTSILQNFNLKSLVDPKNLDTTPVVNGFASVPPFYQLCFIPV
The target in data set [6] is CYP2D6 (Homo sapiens, UniProt P10635). Briefly: CYP2D6 activity on chip by quantifying 1-OH bufuralol. It counts as in vitro ADME.
CYP2D6, sequence (P10635 whole entry): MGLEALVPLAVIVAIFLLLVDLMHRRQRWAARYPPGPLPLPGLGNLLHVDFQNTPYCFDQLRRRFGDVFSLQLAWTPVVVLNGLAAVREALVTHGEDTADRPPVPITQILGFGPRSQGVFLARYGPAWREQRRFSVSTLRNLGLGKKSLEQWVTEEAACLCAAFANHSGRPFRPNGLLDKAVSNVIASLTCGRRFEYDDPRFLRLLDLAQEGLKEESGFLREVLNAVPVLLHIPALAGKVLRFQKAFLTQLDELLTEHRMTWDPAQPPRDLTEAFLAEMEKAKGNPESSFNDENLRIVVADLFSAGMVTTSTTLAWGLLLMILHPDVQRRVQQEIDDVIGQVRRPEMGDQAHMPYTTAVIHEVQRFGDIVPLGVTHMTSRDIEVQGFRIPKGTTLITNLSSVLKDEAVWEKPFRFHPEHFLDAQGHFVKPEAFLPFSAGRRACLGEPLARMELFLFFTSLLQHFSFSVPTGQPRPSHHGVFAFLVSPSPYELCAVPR
Data set [7] deals with T1, CYP1A2 (Homo sapiens, UniProt P05177).
T1 sequence (P05177 1-516): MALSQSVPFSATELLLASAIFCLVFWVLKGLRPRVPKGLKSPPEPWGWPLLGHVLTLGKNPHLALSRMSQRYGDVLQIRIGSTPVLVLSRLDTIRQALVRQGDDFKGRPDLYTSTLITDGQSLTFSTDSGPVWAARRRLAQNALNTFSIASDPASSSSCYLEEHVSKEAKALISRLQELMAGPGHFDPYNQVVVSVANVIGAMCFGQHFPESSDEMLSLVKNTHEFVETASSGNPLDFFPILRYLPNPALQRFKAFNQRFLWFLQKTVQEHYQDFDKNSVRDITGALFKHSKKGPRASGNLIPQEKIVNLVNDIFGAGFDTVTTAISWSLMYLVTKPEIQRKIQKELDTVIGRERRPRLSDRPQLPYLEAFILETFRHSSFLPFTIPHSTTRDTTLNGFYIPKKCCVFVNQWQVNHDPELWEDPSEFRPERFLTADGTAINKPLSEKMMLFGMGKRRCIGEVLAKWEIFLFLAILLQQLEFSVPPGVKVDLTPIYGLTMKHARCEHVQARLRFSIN
Briefly: CYP1A2 activity on chip by quantifying ISOPRO. It counts as in vitro ADME.

The conditions of data set [8]: coadministration; cited from earlier work.
Data set [9] has as its target CYP3A4 (Homo sapiens, UniProt P08684). Briefly: CYP3A4 activity on chip by quantifying α-OH triazolam. Type of data set: in vitro ADME. The conditions noted are these: flow conditions.
Data set [10] is described as follows: Stability of metabolite in medium containing 10% FBS. Type of data set: in vitro ADME. The conditions noted are these: could not be measured.
The mark [11] stands for this setting: both static and flow conditions.

CYP3A4, sequence (P08684 whole entry): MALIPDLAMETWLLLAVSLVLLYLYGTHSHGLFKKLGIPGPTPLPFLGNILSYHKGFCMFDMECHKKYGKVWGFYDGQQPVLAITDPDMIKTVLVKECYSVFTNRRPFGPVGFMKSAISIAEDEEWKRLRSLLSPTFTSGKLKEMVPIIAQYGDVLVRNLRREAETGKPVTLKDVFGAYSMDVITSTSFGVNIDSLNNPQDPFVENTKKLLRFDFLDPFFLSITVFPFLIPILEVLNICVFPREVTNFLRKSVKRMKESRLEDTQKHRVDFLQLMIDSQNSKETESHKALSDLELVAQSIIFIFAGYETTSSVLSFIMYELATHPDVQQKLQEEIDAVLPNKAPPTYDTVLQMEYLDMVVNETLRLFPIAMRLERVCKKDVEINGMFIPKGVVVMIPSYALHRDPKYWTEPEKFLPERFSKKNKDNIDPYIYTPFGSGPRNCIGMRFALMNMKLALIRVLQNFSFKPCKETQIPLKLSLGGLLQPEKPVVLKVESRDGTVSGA

For Lucifer Yellow CH [LY], the “Papp of LY in chips compared to Caco-2 cells mono-culture” value in data set [1] is “lower in both the WT and genome-edited chips”.
As to `CC(C)NCC(O)COc1cccc2ccccc12` (centres unmarked) [propranolol], the “drug concentration in the top channel” value in data set [2] (setting [11]) was “rapidly decreased”. In data set [2] (flow conditions, 24 and 48 h), the “drug concentration, genome-edited chips vs WT chips” value (from here on “drug concentration … vs WT chips”) is listed as “significantly lower than those in the WT chips”. The “drug concentration in the bottom channel” value in data set [2] (flow conditions) is listed as “increased substantially”. Also, the “adsorption onto the PDMS device” value in data set [3] is recorded as “substantially adsorbed”.
With `Cn1c(=O)c2c(ncn2C)n(C)c1=O` [caffeine], in [4], the “oral bioavailability (F)” value is listed as greater than 0.7.
As for `O=C(O)Cc1ccccc1Nc1c(Cl)cc(O)cc1Cl` [4-OH diclofenac, 4’-hydroxy diclofenac], in data set [5] (flow, top and bottom channel, 24 and 48 h), the “metabolite concentration, genome-edited chip vs WT chip” value (shortened to “metabolite concentration … vs WT chip”) is on record as “higher in the genome-edited chip Flow compared to the WT chip Flow”. In addition, in data set [5] (top channel of genome-edited chip), the “metabolite concentration, static vs flow conditions” value is “higher than that under flow conditions”.
For `CC(=O)Nc1ccc(O)cc1` [APAP, acetaminophen], in [2] (flow conditions, 24 and 48 h), the “drug concentration in the top channel, genome-edited chip vs WT chip” value is reported as “slightly higher than those in the WT chip”. Also, the “drug concentration in the top channel” value in data set [2] (flow conditions, 24 and 48 h, 10 μM) is “decreased compared to the initial concentration of 10 μM”; in data set [2] (static conditions, 10 μM), “remained constant”. The “drug concentration in the bottom channel” value in data set [2] (flow conditions) is recorded as “increased substantially”; in [2] (static conditions, 10 μM) it was “increased in a time-dependent manner”. Further, the “oral bioavailability (F)” value in data set [4] is greater than 0.7.
For the compound 1’-hydroxy bufuralol [1-OH bufuralol], the “metabolite concentration … vs WT chip” value in data set [6] (flow, top and bottom channels, 24 and 48 h) is on record as “higher in the genome-edited chip compared to the WT chip”. Also, the “metabolite concentration, flow vs static conditions” value in data set [6] (genome-edited chip) was “higher than that observed in the static conditions”.
Take `Cc1nnc2n1-c1ccc(Cl)cc1C(c1ccccc1Cl)=NC2` [triazolam]: the “drug concentration in the top channel” value in data set [2] (setting [11]) is “rapid decrease in concentration”. The “drug concentration … vs WT chips” value in data set [2] (flow conditions, 24 and 48 h) is “lower than those in WT chips”. In addition, the “drug concentration in the bottom channel” value in data set [2] (flow conditions) is “increased substantially”. In data set [3], the “adsorption onto the PDMS device” value is reported as “substantially adsorbed”.
On to `NCC(O)COc1cccc2ccccc12` (centres unmarked) [ISOPRO, desisopropylpropranolol], for which, in data set [7] (flow conditions vs static), the “metabolite concentration in the bottom channel” value was “increased under flow conditions” and the “metabolite concentration in the top channel” value is listed as “no change was observed”. For the same compound, the “metabolite concentration … vs WT chip” value in data set [7] (flow, top and bottom channels, 1 μM propranolol) is “higher in the genome-edited chip under flow conditions compared to the WT chip”. For the same compound, the “time of peak concentration in the bottom channel” value in data set [7] (genome-edited chip, flow conditions) came to 24 h.
Turning to `CCC(C)n1ncn(-c2ccc(N3CCN(c4ccc(OCC5COC(Cn6cncn6)(c6ccc(Cl)cc6Cl)O5)cc4)CC3)cc2)c1=O` (centres unmarked) [itraconazole], the “effect on the area under the curve (AUC) of triazolam” value in data set [8] is recorded as “increase the area under the curve (AUC) of triazolam”.
On to `O=C(O)Cc1ccccc1Nc1c(Cl)cccc1Cl` [diclofenac], for which the “drug concentration in the top channel” value in data set [2] (setting [11]) was “slightly reduced compared to the initial concentration of 10 μM”.
As for `CCc1cccc2cc(C(O)CNC(C)(C)C)oc12` (centres unmarked) [bufuralol], the “drug concentration … vs WT chips” value in [2] (after 48 h) is reported as “slightly lower in the genome-edited chips than in the WT chips”. In addition, the “drug concentration in the top channel” value in data set [2] (setting [11]) was “rapid decrease in concentration”. In [2] (flow conditions), the “drug concentration in the bottom channel” value is given as “increased substantially compared to static conditions”. Further, the “adsorption onto the PDMS device” value in data set [3] is “substantially adsorbed”.
In the case of `OCc1nnc2n1-c1ccc(Cl)cc1C(c1ccccc1Cl)=NC2` [α-OH triazolam, α-hydroxy triazolam], the “metabolite concentration … vs WT chip” value in data set [9] is recorded as “higher than that observed in the WT chip”.
Turning to `CC(C)NCC(O)COc1ccc(O)c2ccccc12` (centres unmarked) [4-OH propranolol, 4-hydroxy propranolol], the stability entry in data set [10] is “extremely unstable”.
